Measured values published in US6579886B2, “Selective iglur5 receptor antagonists” (Eli Lilly and Company, priority 1999, dated 2003).
Structures can show the parent of a compound that is named as a salt. Values belong to the compound of their own block, whether it stands above or below them.

Experiments:
[1] = target: T1, iGluR5 receptor (relative to iGluR2 AMPA receptor subtype) (Homo sapiens, UniProt P39086); experiment: iGluR5 antagonist binding affinity profile: displacement of 3[H] kainate (iGluR5) versus 3[H] AMPA (iGluR2) in stably transfected HEK293 cells; settings: HEK293 cells stably transfected with human iGluR receptors; 3[H] kainate vs 3[H] AMPA displacement
T1 construct: expressed in transfected cells; host or cells: HEK293 cells, stably transfected
T1 sequence (P39086 31-918): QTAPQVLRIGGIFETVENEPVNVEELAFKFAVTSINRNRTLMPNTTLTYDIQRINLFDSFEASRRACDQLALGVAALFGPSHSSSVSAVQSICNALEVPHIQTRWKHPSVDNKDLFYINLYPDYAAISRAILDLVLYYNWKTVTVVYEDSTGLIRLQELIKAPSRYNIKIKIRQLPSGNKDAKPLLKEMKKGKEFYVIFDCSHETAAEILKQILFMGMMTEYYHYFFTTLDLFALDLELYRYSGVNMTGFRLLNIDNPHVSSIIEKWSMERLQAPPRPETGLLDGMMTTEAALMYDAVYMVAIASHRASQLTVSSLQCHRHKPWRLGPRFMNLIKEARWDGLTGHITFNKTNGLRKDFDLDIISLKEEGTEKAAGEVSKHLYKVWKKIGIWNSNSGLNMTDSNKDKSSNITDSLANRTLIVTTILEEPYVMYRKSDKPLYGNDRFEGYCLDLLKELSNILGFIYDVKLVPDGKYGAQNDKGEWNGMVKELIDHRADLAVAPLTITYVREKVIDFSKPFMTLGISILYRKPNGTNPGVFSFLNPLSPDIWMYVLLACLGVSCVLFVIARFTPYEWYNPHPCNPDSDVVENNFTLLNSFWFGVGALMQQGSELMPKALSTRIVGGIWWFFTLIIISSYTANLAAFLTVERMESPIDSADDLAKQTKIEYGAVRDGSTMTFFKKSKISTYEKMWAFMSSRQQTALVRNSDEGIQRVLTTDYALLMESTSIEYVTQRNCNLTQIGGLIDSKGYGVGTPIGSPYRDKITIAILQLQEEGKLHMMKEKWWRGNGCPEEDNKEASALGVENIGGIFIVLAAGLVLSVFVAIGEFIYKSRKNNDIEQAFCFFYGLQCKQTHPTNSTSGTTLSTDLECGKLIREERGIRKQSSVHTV
From the text: To establish that the iGluR5 receptor subtype is mediating neurogenic protein extravasation, a functional characteristic of migraine, the binding affinity of the compounds of formula I to the iGluR5 receptor is first measured using standard methods. For example, the activity of compounds acting at the iGluR5 receptor can be determined by radiolabelled ligand binding studies at the cloned and expressed human iGluR5 receptor (Korczak et al., 1994, Recept. Channels 3; 41-49), and by whole cell voltage clamp electrophysiological recordings of currents in acutely isolated rat dorsal root ganglion neurons (Bleakman et al., 1996, Mol. Pharmacol. 49; 581-585). The selectivity of compounds acting at the iGluR5 receptor subtype can then be determined by comparing antagonist activity at the iGluR5 receptor with antagonist activity at other AMPA and kainate receptors. […] AMPA by increasing concentrations of antagonist is measured on iGluR1, iGluR2, iGluR3, and iGluR4 expressing cells, while displacement of ^3[H] kainate (KA) is measured on iGluR5, iGluR6, iGluR7, and KA2-expressing cells. As an indicia of selectivity, the ratio of binding affinity to the iGluR2 AMPA receptor subtype, versus the binding affinity to iGluR5 kainate receptor subtype, is also determined.

[2] = tested on: neurogenic dural protein extravasation; experiment: Animal model of dural protein extravasation (trigeminal ganglion stimulation, Evans Blue); format: in vivo, rats or guinea pigs; settings: given orally; approximated from dose-response curve
Description: Methods, 81(1,2) 19-24 (1998). For example, the following animal model is employed to determine the ability of each of the compounds of formula I to inhibit protein extravasation, an exemplary functional assay of the neuronal mechanism of migraine.
Harlan Sprague-Dawley rats (225-325 g) or guinea pigs from Charles River Laboratories (225-325 g) are anesthetized with sodium pentobarbital intraperitoneally (65 mg/kg or 45 mg/kg respectively) and placed in a stereotaxic frame (David Kopf Instruments) with the incisor bar set at −3.5 mm for rats or −4.0 mm for guinea pigs. Following a midline sagital scalp incision, two pairs of bilateral holes are drilled through the skull (6 mm posterially, 2.0 and 4.0 mm laterally in rats; 4 mm posteriorly and 3.2 and 5.2 mm laterally in guinea pigs, all coordinates referenced to bregma). […]
A fluorescence microscope (Zeiss) equipped with a grating monchromator and a spectrophotometer is used to quantify the amount of Evans Blue dye in each sample. An excitation wavelength of approximately 535 nm is utilized and the emission intensity at 600 nm was determined. […] This facilitates the computer-controlled movement of the stage with fluorescence measurements at 25 points ([…]) on each dural sample. The mean and standard deviation of the measurements are determined by the computer. […]

- selectivity: ratio of binding affinity for the iGluR5 receptor over the iGluR2 receptor [1]: 5 fold
Compound: O=C(O)[C@@H]1C[C@H]2C[C@@H](Cc3ccccc3-c3nnn[nH]3)CC[C@H]2CN1

- melting point: 99 to 101 °C
Compound: CCOC(=O)c1ncn(C[C@H]2CC[C@H]3CN[C@H](C(=O)OCC)C[C@H]3C2)c1C(=O)OCC (as salt: hydrochloride) [Example 11, [3S 4aR,6S,8aR]-Ethyl 6-{[4,5-Bis(ethoxycarbonyl)-1H-imidazol-1-yl]methyl}1 2,3,4,4a,5,6,7,8,8a-decahydroisoquinoline-3-carboxylate Dihydrochloride]

Compound: CCOC(=O)c1cn(C[C@H]2CC[C@H]3CN[C@H](C(=O)OCC)C[C@H]3C2)cn1 [Example 3, [3S,4aR,6S,8aR]-Ethyl-6-((4-ethoxycarbonyl-1H-imidazol-1-yl)methyl)-1,2,3,4,4a,5,6,7,8,8a-decahydroisoquinoline-3-carboxylate]
- ID100 (dose that inhibits the extravasation by 100%) [2]: 0.0003 µg/kg
